In patent publication US10918624B2, “Anti-cancer azole compounds” (Imam Abdulrahman Bin Faisal University, priority 2019, dated 2021):
“Also recorded” adds a separate entry of the source.

Key:
HCT-116 cells [1] = assay: Cancer cell morphology (inverted microscope); assay type: cell-based, human; conditions: for cancer cell morphology change: 48 hours, HCT-116; for microscopic evaluation of treated cancer cells (overall): HCT-116, versus control
From the text: Three samples were examined from each experiment.

HCT-116 cells [2] = assay: Cancer cells viability by MTT assay; conditions: for cancer cell viability (% of control) / effect on cancer cells survivability (in words): 48 hrs; for cancer cell viability (% of control) / effect on cancer cells survivability (in words) / attenuating cancer cells proliferation (in words): HCT-116; for effect on cancer cells survivability (in words): 100, 500 and 750 ug/mL; for dose dependence of effect on cancer cell survivability: HCT-116, FIG. 11
Procedure: HCT-116 cells were grown as previously described method by Khan et al. [“Fluorescent magnetic submicronic polymer (FMSP) nanoparticles induce cell death in human colorectal carcinoma cells” Artif Cells Nanomed Biotechnol. (2018 Jul. 25) 1-7, doi: 10.1080/21691401.2018.1491476]. In brief, HCT-116 cells were grown in the DMEM, 10% fetal bovine serum, L-glutamine, selenium chloride, penicillin, and streptomycin. The cells were culture in incubator (Heracell 150i, Thermo-scientific, USA) containing 5% CO2 at 37°. Finally, confluence cells were seeded into 96-well cell plates and once the cells become 80% confluence, the cancer cells were treated with different concentrations (100 μg/mL, 500 μg/mL and 750 μg/mL) of BG-(Tri)2, BG-(ATri)2, BG-(Atet)2, BG-(Imi)2, BG-(H3PO4)2, respectively. Thereafter, the treated cancer cells were microscopically monitored after 24 hrs and 48 hrs intervals. Three samples were examined from each experiment.
The effects of BG-(Tri)2, BG-(ATri)2, BG-(Atet)2, BG-(Imi)2, BG-(H3PO4)2 on cancer cells were determined by MTT assay. The cancer cells were seeded with 6×10^4 cells/mL in 96-well culture plates containing DMEM, 10% Fetal bovine serum, penicillin, and streptomycin and were incubated in CO2 incubator till they become 80% confluence. Then, cancer cells were treated with BG-(Tri)2, BG-(ATri)2, BG-(Atet)2, BG-(Imi)2, BG-(H3PO4)2 at concentrations of 100 μg/mL, 500 μg/mL and 750 μg/mL, respectively. […] MTT (5.0 mg/mL) solution was added in each well and cells were again incubated for 4 hrs in the CO2 incubator and finally media was changed with the addition of DMSO. The color intensity of each sample was measured using an ELISA plate reader (Biotek Instruments, USA) at wavelength 570 nm.
The following formula was used to calculate percentage of cell viability: % of Cell viability=Optical density (O.D) of BG-(Tri)2,BG-(ATri)2,BG-(Atet)2,BG-(Imi)2,BG-(H3PO4)2 cells/Optical density (O.D) of control cells×100 Statistical Analysis:
The mean±standard deviation (SD) from control and BG-(Tri)2, BG-(ATri)2, BG-(Atet)2, BG-(Imi)2, BG-(H3PO4)2 treated groups were calculated. All statistical analyses were completed with GraphPad Prism 6 (GraphPad Software). The difference between control and BG-(Tri)2, BG-(ATri)2, BG-(Atet)2, BG-(Imi)2, BG-(H3PO4)2 groups by a one-way ANOVA test (P<0.05). P<0.05 was considered as statistically significant.

[3] = Thermogravimetric analyses (TGA); assay type: physicochemical; conditions: 25° C. to 700° C., 10° C. min, nitrogen
Procedure: TGA were carried on Perkin-Elmer, simultaneous thermal analyzer (STA6000, PerkinElmer, Ohio, USA). TGA data of azole-BG samples were obtained at temperature in the range of 25° C. to 700° C. at the rate of 10° C. min under inert nitrogen flowing at a rate of 20 mL/min.

Structure (SMILES)	cancer cell morphology change (HCT-116 cells [1]; 100 μg/mL)	cancer cell morphology change (HCT-116 cells [1]; 500 μg/mL)	cancer cell morphology change (HCT-116 cells [1]; 750 μg/mL)	microscopic evaluation of treated cancer cells (overall) (HCT-116 cells [1])	cancer cell viability (% of control) (HCT-116 cells [2]; 100 ug/mL) [%]	cancer cell viability (% of control) (HCT-116 cells [2]; 500 ug/mL) [%]	cancer cell viability (% of control) (HCT-116 cells [2]; 750 ug/mL) [%]	effect on cancer cells survivability (in words) (HCT-116 cells [2])	attenuating cancer cells proliferation (in words) (HCT-116 cells [2])	dose dependence of effect on cancer cell survivability (HCT-116 cells [2])	cancer cell morphology change (HCT-116 cells [1]; 500 μg/mL, listed as BG-(ATet)2)	cancer cell morphology change (HCT-116 cells [1]; 750 μg/mL, listed as BG-(ATet)2)	cancer cell morphology change (HCT-116 cells [1]; 500 μg/mL, listed as BG-(H3PO4))	cancer cell morphology change (HCT-116 cells [1]; 750 μg/mL, listed as BG-(H3PO4))	temperature of weight loss / degradation by TGA [3]
OC(CNc1ncn[nH]1)COCCCCOCC(O)CNc1ncn[nH]1 (stereo not drawn) [BG-(ATri)2]	significant levels of nucleus condensation and nuclear augmentation	nuclear condensation and augmentation	Significant loss of cell population; also recorded: strong nuclear condensation and augmentation and showed the beginning of cell membrane disruption	not only affected the cancer cell membrane, but also induced nuclear condensation, augmentation and disintegration	28.12	25.62	24.68	most profound effects on the cancer cells; also recorded: profound effects on cancer cells survivability	highly effective in attenuating cancer cells proliferation	dose dependent effects on cancer cell survivability	–	–	–	–	–
OC(CNc1nnn[nH]1)COCCCCOCC(O)CNc1nnn[nH]1 (stereo not drawn) [BG-(Atet)2]	strong nucleus condensation and nuclear augmentation	Further nucleus condensation and augmentation	significant loss of cell population	not only affected the cancer cell membrane, but also induced nuclear condensation, augmentation and disintegration	25	22.50	18.75	most profound effects on the cancer cells; also recorded: profound effects on cancer cells survivability	highly effective in attenuating cancer cells proliferation	dose dependent effects on cancer cell survivability	nuclear condensation and augmentation	strong nuclear condensation and augmentation and showed the beginning of cell membrane disruption	–	–	–
O=P(O)(O)OCC(O)COCCCCOCC(O)COP(=O)(O)O (stereo not drawn) [BG-(H3PO4)2]	disintegrations of cancer cells	strong nuclear condensation and augmentation	strong nuclear condensation and augmentation	not only affected the cancer cell membrane, but also induced nuclear condensation, augmentation and disintegration	85.31	55.93	53.12	profound effects on cancer cells survivability	–	dose dependent effects on cancer cell survivability	–	–	nuclear condensation and augmentation	strong nuclear condensation and augmentation and showed the beginning of cell membrane disruption	Above 200 °C
OC(COCCCCOCC(O)Cn1ccnc1)Cn1ccnc1 (stereo not drawn) [BG-(Imi)2]	strong nucleus condensation and nuclear augmentation	further nucleus condensation and augmentation; also recorded: nuclear condensation and augmentation	significant loss of cell population; also recorded: strong nuclear condensation and augmentation and showed the beginning of cell membrane disruption	not only affected the cancer cell membrane, but also induced nuclear condensation, augmentation and disintegration	25	21.87	18.75	most profound effects on the cancer cells; also recorded: profound effects on cancer cells survivability	highly effective in attenuating cancer cells proliferation	dose dependent effects on cancer cell survivability	–	–	–	–	–
OC(COCCCCOCC(O)Cn1cncn1)Cn1cncn1 (stereo not drawn) [BG-(Tri)2]	moderate levels of nucleus condensation and nuclear augmentation	Strong nuclear condensation and augmentation and the beginning of cell membrane disruption	significant loss of cell population; also recorded: nuclear condensation and augmentation	not only affected the cancer cell membrane, but also induced nuclear condensation, augmentation and disintegration	75	26.86	21.87	most profound effects on the cancer cells; also recorded: profound effects on cancer cells survivability	highly effective in attenuating cancer cells proliferation	dose dependent effects on cancer cell survivability	–	–	–	–	–
